This test concerns the target T1, Human Polθ polymerase domain (aa1820-2590) (Homo sapiens, UniProt O75417).
T1 construct: Human Polθ polymerase domain (aa1820-2590) was expressed in E. coli; made in house; host or cells: E. coli
T1 sequence (O75417 1820-2590): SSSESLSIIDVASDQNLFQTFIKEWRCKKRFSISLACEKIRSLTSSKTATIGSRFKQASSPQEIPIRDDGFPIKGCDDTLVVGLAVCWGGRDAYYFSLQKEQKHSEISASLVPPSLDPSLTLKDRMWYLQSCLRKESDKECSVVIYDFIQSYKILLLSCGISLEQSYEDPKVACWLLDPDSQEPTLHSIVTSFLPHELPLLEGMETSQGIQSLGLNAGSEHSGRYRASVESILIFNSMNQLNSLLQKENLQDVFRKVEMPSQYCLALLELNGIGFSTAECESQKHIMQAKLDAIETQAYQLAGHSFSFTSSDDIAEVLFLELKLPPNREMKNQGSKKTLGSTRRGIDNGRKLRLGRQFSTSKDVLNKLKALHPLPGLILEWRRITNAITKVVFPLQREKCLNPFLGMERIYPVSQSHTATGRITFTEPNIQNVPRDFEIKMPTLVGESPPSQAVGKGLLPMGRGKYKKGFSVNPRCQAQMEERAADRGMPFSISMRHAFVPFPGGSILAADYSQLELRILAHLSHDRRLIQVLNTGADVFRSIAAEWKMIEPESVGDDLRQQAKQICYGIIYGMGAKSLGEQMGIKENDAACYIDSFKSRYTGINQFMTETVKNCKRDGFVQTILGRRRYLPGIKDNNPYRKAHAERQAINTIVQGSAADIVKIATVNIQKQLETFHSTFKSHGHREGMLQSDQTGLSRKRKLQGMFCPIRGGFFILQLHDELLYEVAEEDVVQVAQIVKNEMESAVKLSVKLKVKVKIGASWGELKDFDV
Briefly: Polθ Polymerase Domain Kinact/KI Assay (PicoGreen). In kind it is biochemical. To be noted: 0.8 nM Polθ, 100 nM DNA substrate, kobs vs [I] fit for 2-step covalent inhibitor. The method in brief:
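Enzyme 0.8 nM, annealed DNA substrate 100 nM, […]; 25 mM Tris pH 7.5, 5% glycerol, 0.01% Triton X-100, 0.1 mg/ml BSA, 1 mM DTT, 1% DMSO. Quench with EDTA at timepoints to 60 min; PicoGreen read. kobs from time courses → Kinact/KI.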

On to `C=C(CN(C)C)C(=O)N1CCN(C(=O)CCN2C[C@H]3CC(=O)N(c4cc(C(F)(F)F)cc(C)n4)[C@@H]3C(=O)N(C)c3cccc(Cl)c32)CC1` [Example 86, (3aR,11aS)-6-chloro-5-(3-(4-(2-((dimethylamino)methyl)acryloyl)piperazin-1-yl)-3-oxopropyl)-10-methyl-1-(6-methyl-4-(trifluoromethyl)pyridin-2-yl)-1,3a,4,5,10,11a-hexahydro-2H-benzo[b]pyrrolo[2,3-f][1,4]diazocine-2,11(3H)-dione], for which the Kinact/Kl amounted to 3.49e+06 M⁻¹ s⁻¹.

In turn, `Cc1cc(C(F)(F)F)cc(N2C(=O)C[C@@H]3CN(Cc4ccc5c(c4)CN(C(=O)/C=C/CN(C)C)C5CC#N)c4c(Cl)cccc4N(C)C(=O)[C@H]32)n1` (single isomer, unassigned) [Example 310b] yielded a Kinact/Kl of 1.46e+06 M⁻¹ s⁻¹.

In turn, `C=C(CN(C)C)C(=O)N1CC(CCCN2C[C@H]3CC(=O)N(c4cc(C(F)(F)F)cc(C)n4)[C@@H]3C(=O)N(C)c3cccc(C)c32)C1` [Example 327, (3aR,11aS)-5-(3-(1-(2-((dimethylamino)-methyl)acryloyl)-azetidin-3-yl)propyl)-6,10-dimethyl-1-(6-methyl-4-(trifluoro-methyl)pyridin-2-yl)-1,3a,4,5,10,11a-hexa-hydro-2H-benzo[b] pyrrolo[2,3-f][1,4] diazocine-2,11(3H)-dione] returned a Kinact/Kl of 3.64e+06 M⁻¹ s⁻¹.

As to `Cc1cc(C(F)(F)F)cc(N2C(=O)C[C@@H]3CN(Cc4ccc5c(c4)N(C(=O)/C=C/CN(C)C)CCO5)c4c(Cl)cccc4N(C)C(=O)[C@H]32)n1` [Example 251, (3aR,11aS)-6-chloro-5-((4-((E)-4-(dimethylamino)but-2-enoyl)-3,4-dihydro-2H-benzo[b][1,4]oxazin-6-yl)methyl)-10-methyl-1-(6-methyl-4-(trifluoromethyl)pyridin-2-yl)-1,3a,4,5,10,11a-hexahydro-2H-benzo[b]pyrrolo[2,3-f][1,4]diazocine-2,11(3H)-dione], the Kinact/Kl stood at 370000 M⁻¹ s⁻¹.

As for `Cc1cc(C(F)(F)F)cc(N2C(=O)C[C@@H]3CN(Cc4ccc([C@@H]5CCCN5C(=O)/C=C/CN(C)C)cc4)c4c(F)cccc4N(C)C(=O)[C@H]32)n1` (racemic) [Example 170b, (3aR,11aS)-5-(4-((S/R)-1-((E)-4-(dimethylamino)-but-2-enoyl)pyr-rolidin-2-yl)benz-yl)-6-fluoro-10-methyl-1-(6-methyl-4-(tri-fluoromethyl)-pyridin-2-yl)-1,3a,4,5,10,11a-hexahydro-2H-benzo[b]pyrrolo [2,3-f][1,4]diazo-cine-2,11(3H)-dione], the Kinact/Kl amounted to 410000 M⁻¹ s⁻¹.

The compound `C=CC(=O)N1CCc2ncn(CCN3C[C@H]4CC(=O)N(c5cc(C(F)(F)F)cc(C)n5)[C@@H]4C(=O)N(C)c4cccc(F)c43)c2C1` [Example 50, (3aR,11aS)-5-(2-(5-acryloyl-4,5,6,7-tetrahydro-3H-imidazo[4,5-c]pyridin-3-yl)ethyl)-6-fluoro-10-methyl-1-(6-methyl-4-(trifluoromethyl)pyridin-2-yl)-1,3a,4,5,10,11a-hexahydro-2H-benzo[b]pyrrolo[2,3-f][1,4]diazocine-2,11(3H)-dione] displayed a Kinact/Kl of 190000 M⁻¹ s⁻¹.

The compound `C=CC(=O)N1CC(c2nc(CN3C[C@H]4CC(=O)N(c5cc(C(F)(F)F)cc(C)n5)[C@@H]4C(=O)N(C)c4cccc(F)c43)nn2C)C1` [Example 100, (3aR,11aS)-5-((5-(1-acryloylazetidin-3-yl)-1-methyl-1H-1,2,4-triazol-3-yl)methyl)-6-fluoro-10-methyl-1-(6-methyl-4-(trifluoromethyl)pyridin-2-yl)-1,3a,4,5,10,11a-hexahydro-2H-benzo[b]pyrrolo[2,3-f][1,4]diazocine-2,11(3H)-dione] registered a Kinact/Kl of 100000 M⁻¹ s⁻¹.

The compound `C=CC(=O)N1Cc2cc(CN3C[C@H]4CC(=O)N(c5cc(C(F)(F)F)cc(C)n5)[C@@H]4C(=O)N(C)c4cccc(Cl)c43)cnc2C1CC#N` (single isomer, unassigned) [Example 292b] gave a Kinact/Kl of 2.52e+06 M⁻¹ s⁻¹.

For the compound `C=CC(=O)N1CCOC[C@@H]1c1ccc(CN2C[C@H]3CC(=O)N(c4cc(C(F)(F)F)cc(C)n4)[C@@H]3C(=O)N(C)c3cccc(C)c32)cn1` (racemic) [Example 324b, (3aR,11aS)-5-((6-((S/R)-4-acryloyl-morpholin-3-yl)pyr-idin-3-yl)methyl)-6,10-dimethyl-1-(6-methyl-4-(trifluoro-methyl)pyridin-2-yl)-1,3a,4,5,10,11a-hexahydro-2H-benzo[b]pyrrolo [2,3-f][1,4]diazo-cine-2,11(3H)-dione], the Kinact/Kl came to 470000 M⁻¹ s⁻¹.

Compound `C=CC(=O)N1CC2(CN(CCN3C[C@H]4CC(=O)N(c5cc(C(F)(F)F)cc(C)n5)[C@@H]4C(=O)N(C)c4cccc(Cl)c43)C[C@H]3COCCN32)C1` (racemic) [Example 26b, (3aR,11aS)-5-(2-((S/R)-1-acryloyl-tetrahydro-1′H-spiro[azetidine-3,6′-pyrazino[2,1-c][1,4]oxazin]-8′(7′H)-yl)ethyl)-6-chloro-10-methyl-1-(6-methyl-4-(trifluoromethyl)pyridin-2-yl)-1,3a,4,5,10,11a-hexahydro-2H-benzo[b]pyrrolo[2,3-f][1,4]diazocine-2, 11(3H)-dione] came in with a Kinact/Kl of 1.29e+06 M⁻¹ s⁻¹.

For `Cc1cc(C(F)(F)F)cc(N2C(=O)C[C@@H]3CN(Cc4cn5c(n4)CN(C(=O)CCl)C(C)C5)c4c(Cl)cccc4N(C)C(=O)[C@H]32)n1` (mixture of isomers) [Example 73b, (3aR,11aS)-6-chloro-5-(((S/R)-7-(2-chloroacetyl)-6-methyl-5,6,7,8-tetrahydroimidazo[1,2-a]pyrazin-2-yl)methyl)-10-methyl-1-(6-methyl-4-(trifluoromethyl)pyridin-2-yl)-1,3a,4,5,10,11a-hexahydro-2H-benzo[b]pyrrolo[2,3-f][1,4]diazocine-2,11(3H)-dione], the Kinact/Kl was 790000 M⁻¹ s⁻¹.

`C=CC(=O)N1CC2(C1)C(C)N(CCN1C[C@H]3CC(=O)N(c4cc(C(F)(F)F)cc(C)n4)[C@@H]3C(=O)N(C)c3cccc(F)c31)C[C@H]1COCCN12` (single isomer, unassigned) [Example 7] had a Kinact/Kl of 410000 M⁻¹ s⁻¹.

For `C=CC(=O)N1Cc2ccc(CN3C[C@H]4CC(=O)N(c5cc(C(F)(F)F)cc(C)n5)[C@@H]4C(=O)N(C)c4cccc(F)c43)cc2C1` [Example 130, (3aR,11aS)-5-((2-acryloylisoindolin-5-yl)methyl)-6-fluoro-10-methyl-1-(6-methyl-4-(trifluoromethyl)pyridin-2-yl)-1,3a,4,5,10,11a-hexahydro-2H-benzo[b]pyrrolo[2,3-f][1,4]diazocine-2,11(3H)-dione], the Kinact/Kl came to 710000 M⁻¹ s⁻¹.

In the case of `Cc1cc(C(F)(F)F)cc(N2C(=O)C[C@@H]3CN(CC45CC(CNC(=O)/C=C/CN(C)C)(C4)C5)c4c(C)cccc4N(C)C(=O)[C@H]32)n1` [Example 179, (E)-N-((3-(((3aR, 11aS)-6,10-dimeth-yl-1-(6-methyl-4-(trifluoromethyl)-pyridin-2-yl)-2,11-dioxo-1,2,3,3a,4, 10,11,11a-octa-hydro-5H-benzo [b]pyrrolo[2,3-f] [1,4]diazocin-5-yl)methyl)bicyclo [1.1.1]pentan-1-yl)methyl)-4-(dimethylamino)-but-2-enamide], the Kinact/Kl was found to be 670000 M⁻¹ s⁻¹.

On to `C=C(CN1CCN(C)CC1)C(=O)N1CC(COCCN2C[C@H]3CC(=O)N(c4cc(C(F)(F)F)cc(C)n4)[C@@H]3C(=O)N(C)c3cccc(C)c32)C1` [Example 193, (3aR,11aS)-6,10-dimethyl-1-(6-methyl-4-(trifluoro-methyl)pyridin-2-yl)-5-(2-((1-(2-((4-methylpiperazin-1-yl)methyl)acrylo-yl)azetidin-3-yl)-methoxy)ethyl)-1,3a,4,5,10,11a-hexahydro-2H-benzo[b]pyrrolo [2,3-f][1,4]diazo-cine-2,11(3H)-dione], for which the Kinact/Kl was found to be 2.58e+06 M⁻¹ s⁻¹.

Consider `C=CC(=O)N1CCC[C@H]1c1nnc(CN2C[C@H]3CC(=O)N(c4cc(C(F)(F)F)cc(C)n4)[C@@H]3C(=O)N(C)c3cccc(C)c32)o1` [Example 273, (3aR,11aS)-5-((5-((S)-1-acryloylpyrrolidin-2-yl)-1,3,4-oxadiazol-2-yl)methyl)-6,10-dimethyl-1-(6-methyl-4-(trifluoromethyl)pyridin-2-yl)-1,3a,4,5,10,11a-hexahydro-2H-benzo[b]pyrrolo[2,3-f][1,4]diazocine-2,11(3H)-dione], for which the Kinact/Kl worked out at 60000 M⁻¹ s⁻¹.
